A word on the ΔTm: it is the shift of the melting midpoint relative to a reference.

For assay [1], the target named is T1, human PD-L1 protein (Homo sapiens, UniProt Q9NZQ7).
T1 construct: purchased Acro Biosystems PD1-H5229
Put plainly: Thermal shift: melting temperature of PD-L1 protein. Format: binding. As to conditions: compound 10 μM, PD-L1 protein 2 μM, Tm minus DMSO vehicle control; read-out: ΔTm (° C.). The essentials: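 Human PD-L1 at 2 μM final was tested in […], 150 mM NaCl with SYPRO Orange, heated 25→95 °C at 0.03 °C/s in a PCR melt-curve run. Tm was taken per treatment; ΔTm is the shift relative to DMSO vehicle.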

Assay [2] addresses T2, PD-L1 protein on the surface of MC38-hPDL1 tumor cells (Homo sapiens, UniProt Q9NZQ7).
T2 construct: expressed in transfected cells; host or cells: MC38-hPDL1 (mouse colon cancer cells)
Put plainly: Induction of endocytosis of PD-L1 on the surface of tumor cells (flow cytometry). Type of assay: cell-based. As to conditions: 16 hours incubation; for Emax: MC38-hPDL1 cells, read-out: MC38 maximum endocytosis rate; for IC50: inducing endocytosis of PD-L1, MC38-hPDL1 cells, read-out: MC38 IC50. The procedure, abridged: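 IC50 comes from nonlinear fits of endocytosis rate, calculated from the loss of surface PE-anti-CD274 flow signal relative to vehicle. Cells were MC38 mouse colon cancer cells engineered to express high human PD-L1. Compound exposure lasted 16 h at 37 °C, 5% CO2.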
Background: In flow cytometry, cells or beads pass a laser one at a time.

Assay [3] has as its target T3, human PD-1/PD-L1 binding (Homo sapiens, UniProt Q9NZQ7).
T3 construct: PD-L1-His protein (19 to 238 amino acids) (Abcam #ab167713); purchased Abcam (PD-L1-His); R&D (PD-1-Fc) ab167713; 1086-PD
The assay can be described thus: Inhibition of human PD-1/PD-L1 binding (TR-FRET/HTRF). Particulars: TR-FRET, PD-L1-His and PD-1-Fc; read-out: PD-1/PD-L1 binding IC50. The essentials: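 PD-L1-His (aa 19–238, diluted to 10 nM) and PD-1-Fc (aa 25–167, diluted to 20 nM) incubated with compounds (10 μM or 1 μM top, 3-fold, 11 doses) 60 min at room temperature, then anti-6HIS Eu cryptate/anti-human IgG-XL665 added for 3 h RT or overnight 4 °C. HTRF 665/620 nm ratio gave inhibition and IC50.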
On the technique in general: In TR-FRET formats the signal depends on donor and acceptor labels being close together.

T2 sequence (Q9NZQ7 19-290): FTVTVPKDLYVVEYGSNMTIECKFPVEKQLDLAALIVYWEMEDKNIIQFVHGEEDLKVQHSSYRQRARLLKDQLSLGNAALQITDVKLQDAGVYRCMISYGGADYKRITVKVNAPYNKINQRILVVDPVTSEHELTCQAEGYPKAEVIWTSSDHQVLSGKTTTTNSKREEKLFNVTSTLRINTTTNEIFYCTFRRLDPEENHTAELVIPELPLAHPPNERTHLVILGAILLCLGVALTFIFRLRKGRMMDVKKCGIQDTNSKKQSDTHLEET
T3 sequence (Q9NZQ7 19-238): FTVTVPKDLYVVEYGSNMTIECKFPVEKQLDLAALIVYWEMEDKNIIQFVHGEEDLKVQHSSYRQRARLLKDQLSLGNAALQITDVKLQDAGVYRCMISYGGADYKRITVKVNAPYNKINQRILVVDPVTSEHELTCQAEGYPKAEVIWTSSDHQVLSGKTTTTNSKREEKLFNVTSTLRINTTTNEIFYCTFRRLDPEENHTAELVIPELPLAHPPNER
T1 sequence (Q9NZQ7 19-238 limits assumed): as the sequence (Q9NZQ7 19-238) above

As to `COc1nc(-c2cccc(-c3cccc(NC(=O)c4nc5c(n4C)CCN(C)C5)c3Cl)c2Cl)ccc1CN1CCN(C(=O)CC#N)CC1` [Embodiment 198, N-(2,2′-Dichloro-3′-(5-((4-(2-cyanoacetyl)piperazin-1-yl)methyl)-6-methoxypyridin-2-yl)-[1,1′-biphenyl]-3-yl)-1,5-dimethyl-4,5,6,7-tetrahydro-1H-imidazo[4,5-c]pyridine-2-carboxamide], the shift in melting temperature (ΔTm) at 10 µM in assay [1] was 12 °C. The Emax in assay [2] amounted to 94%. In assay [3], the IC50 stood at 9.6 nM.

For the compound `COc1nc(-c2cccc(-c3cccc(NC(=O)c4nc5c(n4C)CCN(C)C5)c3Cl)c2Cl)ccc1CN1CC2(CC(O)C2)C1` [Embodiment 185, N-(2,2′-Dichloro-3′-(5-((6-hydroxy-2-azaspiro[3.3]heptan-2-yl)methyl)-6-methoxypyridin-2-yl)-[1,1′-biphenyl]-3-yl)-1,5-dimethyl-4,5,6,7-tetrahydro-1H-imidazo[4,5-c]pyridine-2-carboxamide], the ΔTm at 10 µM in assay [1] is 20.9 °C. In addition, in assay [2], the Emax came to 97% and the IC50 stood at 0.7 nM. The IC50 in assay [3] was 5.3 nM.

For `COc1cc(-c2cccc(-c3cccc(NC(=O)c4nc5c(n4C)CCN(C)C5)c3Cl)c2Cl)ccc1CNCCO` [Embodiment 157, N-(2,2′-Dichloro-4″-(((2-hydroxyethyl)amino)methyl)-3″-methoxy-[1,1′:3′,1″-terphenyl]-3-yl)-1,5-dimethyl-4,5,6,7-tetrahydro-1H-imidazo[4,5-c]pyridine-2-carboxamide], the ΔTm at 10 µM in assay [1] came to 11.2 °C. Moreover, in assay [2], the Emax is 95% and the IC50 is 1.5 nM. Also, the IC50 in assay [3] worked out at 4 nM.

With `COc1cc(-c2cccc(-c3cccc(NC(=O)c4nc5c(n4C)CCN(C)C5)c3Cl)c2Cl)ccc1CNC[C@@H](C)O` [Embodiment 158, (R)—N-(2,2′-Dichloro-4″-(((2-hydroxypropyl)amino)methyl)-3″-methoxy-[1,1′:3′,1″-terphenyl]-3-yl)-1,5-dimethyl-4,5,6,7-tetrahydro-1H-imidazo[4,5-c]pyridine-2-carboxamide], in assay [1], the ΔTm at 10 µM is 10.3 °C. Besides, in assay [2], the Emax stood at 95% and the IC50 was found to be 1.7 nM. For the same compound, in assay [3], the IC50 came to 6.4 nM.

As for `COc1nc(-c2cccc(-c3cccc(NC(=O)c4nc5c(n4C)CCN(C)C5)c3Cl)c2Cl)ccc1CN1C[C@@H]2C[C@H]1CN2C(C)=O` [Embodiment 205, N-(3′-(5-(((1S,4S)-5-Acetyl-2,5-diazabicyclo[2.2.1]heptan-2-yl)methyl)-6-methoxypyridin-2-yl)-2,2′-dichloro-[1,1′-biphenyl]-3-yl)-1,5-dimethyl-4,5,6,7-tetrahydro-1H-imidazo[4,5-c]pyridine-2-carboxamide], the ΔTm at 10 µM in assay [1] was determined as 13.3 °C. The Emax in assay [2] was 96%. Further, the IC50 in assay [3] was 8.8 nM.

Regarding `COc1nc(-c2cccc(-c3cccc(NC(=O)c4nc5c(n4C)CCN(C)C5)c3Cl)c2Cl)ccc1CNC1CCOCC1C(=O)O` (stereo not drawn) [Embodiment 214, 4-(((6-(2,2′-Dichloro-3′-(1,5-dimethyl-4,5,6,7-tetrahydro-1H-imidazo[4,5-c]pyridin-2-carboxamido)-[1,1′-biphenyl]-3-yl)-2-methoxypyridin-3-yl)methyl)amino)tetrahydro-2H-pyran-3-carboxylic Acid], the ΔTm at 10 µM in assay [1] turned out to be 10.2 °C. In addition, the Emax in assay [2] was 93%. For the same compound, the IC50 in assay [3] worked out at 5.3 nM.

As for `COc1nc(-c2cccc(-c3cccc(NC(=O)c4nc5c(n4C)CCN(C)C5)c3Cl)c2Cl)ccc1CN1CC2(CCN(C(C)=O)CC2)C1` [Embodiment 194, N-(3′-(5-((7-Acetyl-2,7-diazaspiro[3.5]nonan-2-yl)methyl)-6-methoxypyridin-2-yl)-2,2′-dichloro-[1,1′-biphenyl]-3-yl)-1,5-dimethyl-4,5,6,7-tetrahydro-1H-imidazo[4,5-c]pyridine-2-carboxamide], the ΔTm at 10 µM in assay [1] worked out at 13.2 °C. Besides, the Emax in assay [2] amounted to 96%. In addition, the IC50 in assay [3] came out at 7.9 nM.
